The record followed here is patent US20230117470A1, “SUBSTITUTED PYRAZOLE COMPOUNDS AS TOLL RECEPTOR INHIBITORS” (BRISTOL-MYERS SQUIBB COMPANY, priority 2019, published 2023).

Format in all cases: cell-based
The target in one assay is T1, human TLR7 (Homo sapiens, UniProt Q9NYK1).
T1 construct: host or cells: HEK-Blue cells
T1 sequence (Q9NYK1 27-1049): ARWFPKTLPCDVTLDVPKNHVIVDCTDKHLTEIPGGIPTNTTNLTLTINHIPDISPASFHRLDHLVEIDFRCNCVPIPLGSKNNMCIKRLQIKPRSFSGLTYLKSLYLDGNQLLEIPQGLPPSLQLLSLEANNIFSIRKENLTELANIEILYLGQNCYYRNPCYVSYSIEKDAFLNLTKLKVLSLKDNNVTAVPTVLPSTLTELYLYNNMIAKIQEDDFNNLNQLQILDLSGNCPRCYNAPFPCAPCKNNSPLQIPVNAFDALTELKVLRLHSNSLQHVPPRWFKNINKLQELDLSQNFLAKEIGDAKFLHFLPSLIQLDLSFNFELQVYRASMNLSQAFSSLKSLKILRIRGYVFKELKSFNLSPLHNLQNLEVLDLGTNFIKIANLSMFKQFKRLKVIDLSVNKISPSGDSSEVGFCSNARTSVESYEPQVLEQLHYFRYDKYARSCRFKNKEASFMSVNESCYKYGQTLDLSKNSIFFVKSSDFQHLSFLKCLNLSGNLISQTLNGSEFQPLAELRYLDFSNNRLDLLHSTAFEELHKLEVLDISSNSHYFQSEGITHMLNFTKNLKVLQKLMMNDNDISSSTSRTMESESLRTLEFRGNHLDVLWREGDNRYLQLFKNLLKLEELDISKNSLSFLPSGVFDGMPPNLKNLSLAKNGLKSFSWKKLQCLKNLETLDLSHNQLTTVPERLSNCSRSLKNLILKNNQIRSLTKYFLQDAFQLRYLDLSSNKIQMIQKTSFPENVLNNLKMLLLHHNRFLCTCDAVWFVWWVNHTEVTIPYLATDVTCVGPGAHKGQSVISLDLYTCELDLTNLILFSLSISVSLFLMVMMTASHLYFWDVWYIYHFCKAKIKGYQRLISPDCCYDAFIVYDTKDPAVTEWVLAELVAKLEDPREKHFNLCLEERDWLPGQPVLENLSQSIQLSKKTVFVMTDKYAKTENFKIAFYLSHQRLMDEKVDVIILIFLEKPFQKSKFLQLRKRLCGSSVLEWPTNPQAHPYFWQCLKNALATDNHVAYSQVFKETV
Kind of assay: TLR7 inhibition reporter assay (HEK-Blue cells, SEAP reporter, gardiquimod stimulation). The settings on record: HEK-Blue cells overexpressing human TLR7, SEAP reporter, gardiquimod 7.5 μM. The procedure, abridged: (§1)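 Ligand levels differed by receptor: TLR7 got gardiquimod at 7.5 μM, TLR8 got R848 at 15.9 μM, and TLR9 got ODN2006 at 5 nM, each added after a 30-min room-temperature compound exposure. Incubation lasted 22 h at 37° C before colorimetric SEAP detection.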

The target of the next assay is T2, human TLR8 (Homo sapiens, UniProt Q9NR97).
T2 construct: host or cells: HEK-Blue cells
T2 sequence (Q9NR97 27-1041): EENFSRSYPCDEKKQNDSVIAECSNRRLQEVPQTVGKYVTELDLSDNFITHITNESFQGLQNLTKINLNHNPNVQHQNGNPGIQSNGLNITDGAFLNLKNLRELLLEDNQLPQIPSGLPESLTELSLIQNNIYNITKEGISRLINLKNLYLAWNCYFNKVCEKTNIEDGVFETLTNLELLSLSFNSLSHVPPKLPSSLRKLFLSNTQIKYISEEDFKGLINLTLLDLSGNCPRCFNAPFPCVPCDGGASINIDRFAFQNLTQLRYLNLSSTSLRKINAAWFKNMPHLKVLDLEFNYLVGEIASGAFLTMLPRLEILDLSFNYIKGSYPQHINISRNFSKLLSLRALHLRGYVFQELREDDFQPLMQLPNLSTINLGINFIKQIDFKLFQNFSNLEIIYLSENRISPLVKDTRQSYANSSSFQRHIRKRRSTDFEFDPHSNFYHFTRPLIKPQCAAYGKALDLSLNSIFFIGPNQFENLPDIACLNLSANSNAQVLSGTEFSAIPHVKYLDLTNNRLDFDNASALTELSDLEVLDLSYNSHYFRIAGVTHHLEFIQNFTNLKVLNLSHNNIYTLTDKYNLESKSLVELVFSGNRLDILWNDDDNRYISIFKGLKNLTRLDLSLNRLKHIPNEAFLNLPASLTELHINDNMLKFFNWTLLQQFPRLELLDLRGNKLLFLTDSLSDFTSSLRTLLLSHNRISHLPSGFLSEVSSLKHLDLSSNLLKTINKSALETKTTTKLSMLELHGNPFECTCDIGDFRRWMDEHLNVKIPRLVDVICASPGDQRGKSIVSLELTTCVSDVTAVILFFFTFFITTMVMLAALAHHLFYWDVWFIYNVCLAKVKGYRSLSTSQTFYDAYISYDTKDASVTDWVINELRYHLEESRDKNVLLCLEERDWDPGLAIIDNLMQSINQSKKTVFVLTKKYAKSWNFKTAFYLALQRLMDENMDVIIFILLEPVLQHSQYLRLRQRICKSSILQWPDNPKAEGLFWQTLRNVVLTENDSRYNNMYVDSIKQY
Nature of the assay: TLR8 inhibition reporter assay (HEK-Blue cells, SEAP reporter, R848 stimulation). The following applies: HEK-Blue cells overexpressing human TLR8, SEAP reporter, R848 15.9 μM. The procedure, abridged:
as §1

The next assay concerns the target T3, human TLR9 (Homo sapiens, UniProt Q9NR96).
T3 construct: host or cells: HEK-Blue cells
T3 sequence (Q9NR96 26-1032): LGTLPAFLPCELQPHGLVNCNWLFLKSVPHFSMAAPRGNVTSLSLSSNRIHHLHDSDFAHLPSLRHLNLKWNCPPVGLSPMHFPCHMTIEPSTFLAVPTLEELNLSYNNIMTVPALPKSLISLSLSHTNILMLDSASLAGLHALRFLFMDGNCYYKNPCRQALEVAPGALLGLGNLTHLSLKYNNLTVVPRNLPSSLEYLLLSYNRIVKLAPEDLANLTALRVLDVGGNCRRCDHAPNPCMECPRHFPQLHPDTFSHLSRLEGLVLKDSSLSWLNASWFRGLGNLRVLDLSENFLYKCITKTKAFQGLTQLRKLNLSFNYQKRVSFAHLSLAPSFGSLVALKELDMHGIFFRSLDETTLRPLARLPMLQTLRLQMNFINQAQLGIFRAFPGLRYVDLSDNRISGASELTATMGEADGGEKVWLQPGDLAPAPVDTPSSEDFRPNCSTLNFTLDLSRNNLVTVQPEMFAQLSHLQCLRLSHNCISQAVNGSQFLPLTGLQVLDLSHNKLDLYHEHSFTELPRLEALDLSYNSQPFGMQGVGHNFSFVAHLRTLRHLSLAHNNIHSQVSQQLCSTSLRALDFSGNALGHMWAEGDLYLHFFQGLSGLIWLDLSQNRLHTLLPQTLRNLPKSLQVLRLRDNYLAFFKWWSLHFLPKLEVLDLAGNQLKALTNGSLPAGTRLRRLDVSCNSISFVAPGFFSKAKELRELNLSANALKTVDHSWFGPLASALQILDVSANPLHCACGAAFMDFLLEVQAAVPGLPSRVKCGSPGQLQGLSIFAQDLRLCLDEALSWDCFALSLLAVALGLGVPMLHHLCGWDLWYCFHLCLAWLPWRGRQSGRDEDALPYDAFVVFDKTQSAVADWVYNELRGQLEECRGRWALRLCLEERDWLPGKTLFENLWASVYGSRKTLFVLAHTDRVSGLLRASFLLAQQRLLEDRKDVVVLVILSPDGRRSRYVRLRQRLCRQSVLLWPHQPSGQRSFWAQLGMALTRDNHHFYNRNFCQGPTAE
Kind of assay: TLR9 inhibition reporter assay (HEK-Blue cells, SEAP reporter, ODN2006 stimulation). The following applies: HEK-Blue cells overexpressing human TLR9, SEAP reporter, ODN2006 5 nM. The procedure, abridged:
as §1

With `COc1cc(-c2[nH]nc(-c3ccc(C4CCN(CC#N)CC4)cn3)c2C(C)C)cn2ncnc12` [Example 394], the figures for the IC50 at human TLR7, at human TLR8 and against human TLR9 were 154 nM, 529 nM and over 50000 nM, respectively.
As to `Cc1cc(-c2[nH]nc(-c3ncc(C4CCN(CC(C)(C)O)CC4)cn3)c2C(C)C)cn2ncnc12` [Example 390], the results for the IC50 on human TLR7, at human TLR8 and at human TLR9 were 93.6 nM, 481 nM and over 50000 nM, respectively.
`CNC1CCC(NC(=O)c2n[nH]c(-c3cc(C)c4ncnn4c3)c2C(C)C)CC1` (stereo not drawn) [Example 130]: the IC50 against human TLR7 worked out at 0.45 nM; on human TLR8 it was 2.42 nM; against human TLR9, 11500 nM.
Turning to `Cc1cc(-c2[nH]nc(-c3ccncc3)c2C(C)C)cn2ncnc12` [Example 223], the IC50 at human TLR7 came out at 8.65 nM; against human TLR8, 10.3 nM; at human TLR9, 14300 nM.
The like results for `Cc1cc(-c2[nH]nc(C3CCC(NCC4(C)COC4)CC3)c2C(C)C)cn2ncnc12` (single isomer, unassigned) [Example 280] were, in that order, 1.26 nM, 0.73 nM and 4960 nM.
`COc1cc(-c2[nH]nc(-c3ccc(C4CCNCC4)cn3)c2C(C)C)cn2ncnc12` [Example 339, 6-(4-isopropyl-3-(5-(piperidin-4-yl)pyridin-2-yl)-1H-pyrazol-5-yl)-8-methoxy-[1,2,4]triazolo[1,5-a]pyridine]: the IC50 turned out to be 19.9 nM against human TLR7, 3.86 nM on human TLR8 and 36600 nM at human TLR9.
Taken in the same sequence, the figures for `Cc1cc(-c2[nH]nc(-c3ncc4c(n3)CCN(C3COC3)C4)c2C(C)C)cn2ncnc12` [Example 251] were 10.6 nM, 2.68 nM and 45300 nM.
Taken in the same sequence, the figures for `Cc1cc(-c2[nH]nc(-c3ccc(C4CN(C(C)C)C4)cc3)c2C(C)C)cn2ncnc12` [Example 327] were 7.5 nM, 7.11 nM and 15800 nM.
Consider `Cc1cc(-c2[nH]nc(-c3cnc(N)cn3)c2C(C)C)cn2ncnc12` [Example 226], for which the IC50 came out at 0.35 nM at human TLR7, 0.41 nM on human TLR8 and 6780 nM against human TLR9.
The like results for `Cc1cc(-c2[nH]nc(-c3ccc(N)cc3)c2C(C)C)cn2ncnc12` [Example 233] were, in that order, 2.3 nM, 0.59 nM and over 50000 nM.
`COc1cc(-c2[nH]nc(-c3ccc(C4CCN(CC5(C)COC5)CC4)cc3)c2C(C)C)cn2ncnc12` [Example 312]: the results for the IC50 at human TLR7, against human TLR8 and against human TLR9 were 5.42 nM, 17.8 nM and over 50000 nM, respectively.
Take `Cc1cc(-c2[nH]nc(-c3cnc(N4CCNCC4)nc3)c2C(C)C)cn2ncnc12` [Example 407]: the IC50 against human TLR7 is 28.6 nM; at human TLR8, 279 nM; at human TLR9 it was over 50000 nM.
Turning to `COc1cc(-c2[nH]nc(-c3ccc(C4CN(C(C)C)C4)cc3)c2C(C)C)cn2ncnc12` [Example 331], the IC50 on human TLR7 is 4.29 nM; at human TLR8 it was 0.49 nM; against human TLR9, 6310 nM.
Taken in the same sequence, the figures for `Cc1cc(-c2[nH]nc(C(=O)NC3CCN(CCC(F)(F)F)CC3)c2C(C)C)cn2ncnc12` [Example 69, 4-isopropyl-5-(8-methyl-[1,2,4]triazolo[1,5-a]pyridin-6-yl)-N-(1-(3,3,3-trifluoropropyl)piperidin-4-yl)-1H-pyrazole-3-carboxamide] were 4.17 nM, 35.6 nM and 6320 nM.
Taken in the same sequence, the figures for `Cc1cc(-c2[nH]nc(-c3cnc(N)nc3)c2C(C)C)cn2ncnc12` [Example 228] were 2.18 nM, 1.46 nM and 8860 nM.
The like results for `Cc1cc(-c2[nH]nc(-c3ccc4c(c3)CCNC4=O)c2C(C)C)cn2ncnc12` [Example 215] were, in that order, 2.3 nM, 6 nM and 15000 nM.
Regarding `CCC(CC)CN1CCC(NC(=O)c2n[nH]c(-c3cc(C)c4ncnn4c3)c2C(C)C)CC1` [Example 79], the results for the IC50 against human TLR7, on human TLR8 and against human TLR9 were 2.29 nM, 9.23 nM and 4120 nM, respectively.
Taken in the same sequence, the figures for `Cc1cc(-c2[nH]nc(-c3ccc4c(c3)CCNC4)c2C(C)C)cc(C)n1` [Example 278, 6-(5-(2,6-dimethylpyridin-4-yl)-4-isopropyl-1H-pyrazol-3-yl)-1,2,3,4-tetrahydroisoquinoline] were 1.43 nM, 0.33 nM and 10800 nM.
Taken in the same sequence, the figures for `Cc1cc(-c2[nH]nc(C3CCC(NCC4(C)COC4)CC3)c2C(C)C)cn2ncnc12` (single isomer, unassigned) [Example 281] were 9.49 nM, 0.45 nM and 42600 nM.
